# Source: US20080027010A1, “Treatment of refractory cancers using Na+/K+-ATPase inhibitors” (Bionaut Pharmaceuticals, Inc., priority 2004, published 2008)
# “Also recorded” adds a separate entry of the source.
# Assays:
# [1] = tested on: VEGF; experiment: VEGF secretion in tumor cells; type: cell-based; settings: FIG. 8
# [2] = tested on: Na/K-ATPase; settings: cited from earlier work
# [3] = tested on: several different cancer cell lines; experiment: Proliferation of several different cancer cell lines; type: cell-based
# [4] = tested on: A549 Sentinel Line; experiment: Sentinel Line beta-galactosidase reporter assay (FACS, FDG loading); type: cell-based, human; settings: 40 hrs; mitoxantrone 8 nM, paclitaxel 1.5 nM, carboplatin 15 μM, Iressa 4 μM
# Experimental: The expression level of beta-galactosidase gene in sentinel lines was determined by using a fluorescent substrate fluorescein di-β-D-Galactopyranside (FDG, Marker Gene Tech, #M0250) introduced into cells by hypotonic shock. Cleavage by beta-galactosidase results in the production of free fluorescein, which is unable to cross the plasma membrane and is trapped inside the beta-gal positive cells. Briefly, the cells to be analyzed are trypsinized, and resuspended in PBS containing 2 mM FDG (diluted from a 10 mM stock prepared in 8:1:1 mixture of water:ethanol:DMSO). The cells were then shocked for 4 minutes at 37° C. and transferred to FACS tubes containing cold 1×PBS on ice. Samples were kept on ice for 30 minutes and analyzed by FACS in FL1 channel.
# Sentinel Line cells with beta-galactosidase reporter gene were plated at 1×10^5 cells/10 cm dish. […] After 40 hrs, the cells were trypsinized and the expression level of reporter gene was determined by FDG loading.
# The reporter activity was measured by FACS analysis.
# [5] = tested on: HIF-1α; experiment: HIF-1α Western blot in human tumor cells under hypoxia; type: cell-based
# Experimental: For HIF1-alpha Western blots, Hep3B cells were seeded in growth medium at a density of 7×10^6 cells per 100 mm dish. […] Samples were fractionated on 3-8% Tris-Acetate gel (Invitrogen NUPAGE system) by sodium dodecyl sulfate (SDS)-polyacrylamide gel electropherosis and transferred onto nitrocellulose membrane. […] Anti-Beta-actin monoclonal antibody (Abcam, ab6276-100) was used at a 1:5000 dilution with a 30-minute incubation at room temperature.
# The cells were placed in hypoxic conditions for 4 hours for HIF1-alpha accumulation.
# The cells were lysed and proteins were resolved by SDS-PAGE and transferred to a nylon membrane. The membrane was immunoblotted with anti-HIF-1α and anti-HIF1β MAb, and anti-beta-actin antibodies.
# HIF-1α and β-actin protein level was determined by western blotting.
# [6] = mice
# [7] = cited from earlier work
# [8] = tested on: HIF-1α; experiment: HIF-1α induced under normoxia by PHD inhibitor L-mimosone in Hep3B cells, Western blot; type: cell-based, human
# Experimental: Abundance of HIF-1α and β-actin was determined by western blotting.
# [9] = tested on: Panc-1 human pancreatic xenograft; experiment: Panc-1 human pancreatic tumor xenograft in nude mice; type: in vivo; settings: Panc-1 xenografts in nude mice; FIGS. 16, 17, 22
# Experimental: The control animals received pumps containing vehicle (50% DMSO in DMEM). The mice treated with standard chemotherapy agent received intra-peritoneal injections of Gemcitabine at 40 mg/kg every 3 days for 4 treatments (q3d×4). Each data point represent average tumor weight (n=8) and error bars indicate SEM.
# [10] = cited from earlier work; remark: listed apart in the source
# [11] = tested on: Caki-1 human renal cancer xenograft; type: in vivo; settings: xenografted Caki-1 human renal tumors in nude mice; FIG. 23
# Description: Female nude mice (nu/nu) between 5 and 6 weeks of age weighing approximately 20 g were implanted subcutaneously (s.c.) by trocar with fragments of human tumors harvested from s.c. grown tumors in nude mice hosts. […] Each group contains 8-10 mice, each of which was ear tagged and followed throughout the experiment.
# The administration of drugs or controls began the day the animals were pair-matched (Day 1). […] Mice were weighed and tumor measurements were obtained using calipers twice weekly, starting Day 1. These tumor measurements were converted to mg tumor weight by standard formula, (W^2×L)/2. The experiment is terminated when the control group tumor size reached an average of about 1 gram. Upon termination, the mice were weighed, sacrificed and their tumors excised. The tumors were weighed and the mean tumor weight per group was calculated.
smiles,measurement,setting,value
"C[C@@H]1O[C@@H](O[C@H]2C[C@@H](O)[C@]3(CO)[C@H]4[C@H](O)C[C@]5(C)[C@@H](C6=CC(=O)OC6)CC[C@]5(O)[C@@H]4CC[C@]3(O)C2)[C@H](O)[C@H](O)[C@H]1O [BNC-1, ouabain]",secretion of the angiogenesis factor VEGF,[1],directly or indirectly inhibits
same,order of Na/K-ATPase-inhibition,[2],Ouabain<Digoxin<Proscillaridin
same,decrease of concentration effective for inhibiting proliferation of cancer cells,[3]; combination with steroid signal modulator (Casodex),5 fold
same,IC50,"[3]; proliferation of cancer cell lines, read-out: IC50 across several different cancer cell lines",80 to 300 nM
CC(=O)O[C@H]1C(=O)[C@@]2(C)[C@H]([C@H](OC(=O)c3ccccc3)[C@]3(O)C[C@H](OC(=O)[C@H](O)[C@@H](NC(=O)c4ccccc4)c4ccccc4)C(C)=C1C3(C)C)[C@]1(OC(C)=O)CO[C@@H]1C[C@@H]2O [paclitaxel],cell death and reporter activity in Sentinel Lines,[4],increases in cell death and reporter activity
C[C@H]1O[C@@H](O[C@H]2[C@@H](O)C[C@H](O[C@H]3[C@@H](O)C[C@H](O[C@H]4CC[C@@]5(C)[C@H](CC[C@@H]6[C@@H]5C[C@@H](O)[C@]5(C)[C@@H](C7=CC(=O)OC7)CC[C@]65O)C4)O[C@@H]3C)O[C@@H]2C)C[C@H](O)[C@@H]1O [Digoxin],order of Na/K-ATPase-inhibition,[2],Ouabain<Digoxin<Proscillaridin
C[C@@H]1OC(OC2C=C3CCC4C5=CC[C@H](c6ccc(=O)oc6)[C@@]5(C)CCC4[C@@]3(C)CC2)[C@H](O)[C@H](O)[C@H]1O (stereo partly drawn) [BNC-151],HIF-1α expression,[5]; 1 μM,Significant inhibition of HIF-1α expression
COc1cc2ncnc(Nc3ccc(F)c(Cl)c3)c2cc1OCCCN1CCOCC1 [Iressa],cell death and reporter activity in Sentinel Lines,[4],reduction in reporter activity
"O=C1c2c(O)ccc(O)c2C(=O)c2c(NCCNCCO)ccc(NCCNCCO)c21 [mitoxanthrone, mitoxantrone]",cell death and reporter activity in Sentinel Lines,[4],increases in cell death and reporter activity
"C[C@@H]1OC(OC2C=C3CCC4C(CC[C@]5(C)[C@@H](c6ccc(=O)oc6)CC[C@]45O)[C@@]3(C)CC2)[C@H](O)[C@H](O)[C@H]1O (stereo partly drawn) [BNC-4, proscillaridin]",serum level corresponding to maximum toxic dose (MTD),[6],about 518 (±121) ng/ml
same,toxic serum concentration at day 1,[6]; steady state delivery,about 518±121 ng/ml
same,secretion of the angiogenesis factor VEGF,[1],directly or indirectly inhibits
same,time of third plasma concentration peak,[7]; after dosing,about 10 hours
same,influence of impaired kidney function on clearance,[7]; in vivo,no influence on clearance
same,HIF-1α accumulation,[8]; 200 μM L-mimosone for 18 h,blocks HIF-1α induction; also recorded: eliminated HIF-1α accumulation
same,HIF-1α accumulation,"[8]; L-mimosone, low concentration tested",did not appear to have an effect
same,order of Na/K-ATPase-inhibition,[2],Ouabain<Digoxin<Proscillaridin
same,tumor growth,[9],significantly reduce tumor growth
same,HIF-1α expression,[5]; 0.1 μM,completely inhibits HIF-1α expression
same,HIF-1α expression,[5]; 1 μM,completely inhibits HIF-1α expression
same,patients taken off treatment because of negative side effects,[10]; 1067 patients observed for up to 3 years,0.7%
same,doses producing typical cardiac glycoside intoxication symptoms,[10]; healthy individuals,above 4 mg p.o./d
same,"average level of side effects (nausea, seasickness, headache, vomiting, stomach cramps, diarrhea) in clinical reports","[10]; human, in vivo",5%
same,dose taken without any negative side effects,[10]; long-term medication of cardiac illnesses,up to 1.5 mg per day
same,reported cases in which therapy could be resumed after a brief hiatus,[10]; review of 47 clinical studies,> 95%
same,tumor growth,[11],significantly reduce tumor growth
N.N.O=C([O-])C1(C(=O)[O-])CCC1.[Pt+2] [Carboplatin],cell death and reporter activity in Sentinel Lines,[4],increases in cell death and reporter activity
